# Source: patent US10654834B2 (Venenum Biodesign, LLC, priority 2016, dated 2020)
# Target: T1, mouse TGR5 receptor (Mus musculus, UniProt Q80SS6)
# T1 construct: host or cells: HEK293-EBNA (293 c18, ATCC CRL10852)
# T1 sequence (Q80SS6 1-329): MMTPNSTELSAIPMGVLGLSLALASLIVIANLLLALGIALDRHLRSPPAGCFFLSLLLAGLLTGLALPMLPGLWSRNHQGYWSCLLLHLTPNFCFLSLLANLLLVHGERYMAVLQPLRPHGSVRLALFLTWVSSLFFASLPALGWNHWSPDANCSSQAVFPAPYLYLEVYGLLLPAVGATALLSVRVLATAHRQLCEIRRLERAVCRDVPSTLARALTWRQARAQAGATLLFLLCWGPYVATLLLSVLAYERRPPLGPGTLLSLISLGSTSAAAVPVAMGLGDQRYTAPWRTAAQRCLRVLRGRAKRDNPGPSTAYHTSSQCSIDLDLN
# Assay: Mouse TGR5 luminescent cAMP production assay (HEK293-EBNA cells, DiscoveRx cAMP XS+ kit)
# Format: cell-based
# Settings: HEK293-EBNA cells overexpressing mouse TGR5, luminescent cAMP assay; read-out: Mouse TGR5 Lum. cAMP Activity (EC50)
# Outline: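 HEK293-EBNA cells stably expressing mouse TGR5, resuspended in serum-free DMEM with 500 μM IBMX, were premixed 20 min with cAMP antibody, then exposed to half-log compound dilutions for 1 h at room temperature. cAMP was read by luminescent enzyme-fragment complementation (cAMP XS+) after overnight incubation; EC50 derived.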
structure (smiles),measurement,value
"N#Cc1ccc(CCNC(=O)[C@@H]2CCCN2c2cc(N3CCC(CO)CC3)nc(C(F)(F)F)n2)cc1 [Compound 1, (S)—N-(4-cyanophenethyl)-1-(6-(4-(hydroxymethyl)piperidin-1-yl)-2-(trifluoromethyl)pyrimidin-4-yl)pyrrolidine-2-carboxamide]",EC50,< 100 nM
